We go through two compounds from patent US20090099217A1, “2-Aminopyrimidin-4-Ones And Their Use For Treating Or Preventing Alpha Beta-Related Pathologies” (ASTEX THERAPEUTICS LTD., priority 2006, published 2009).

Where a name gives a salt, the structure may show the parent alone.

For this test, the target named is T1, human β-Secretase (Homo sapiens, UniProt P56817).
T1 construct: The soluble part of the human β-Secretase (AA 1-AA 460) was cloned; Fc domain of IgG1 (C); made in house
Put plainly: TR-FRET Assay. The conditions noted are these: sBACE-Fc enzyme 0.3 nM; substrate (Europium)CEVNLDAEFK(Qsy7) 100 nM; pH 4.5. The class given is biochemical. As to the method: The enzyme used in the IGEN Cleavage-, Fluorescent-, TR-FRET- and the BiaCore assay is described as follows:
The soluble part of the human β-Secretase (AA 1-AA 460) was cloned into the ASP2-Fc10-1-IRES-GFP-neoK mammalian expression vector. The gene was fused to the Fc domain of IgG1 (affinity tag) and stably cloned into HEK 293 cells. Purified sBACE-Fc is stored in Tris buffer, pH 9.2 and has a purity of 95%.
Dilute the enzyme (truncated form) to 6 μg/mL (stock 1.3 mg/mL) and the substrate (Europium)CEVNLDAEFK(Qsy7) to 200 nM (stock 60 μM) in reaction buffer (NaAcetate, chaps, triton x-100, EDTA pH4.5). The Biomek FX is used for all liquid handling and the enzyme and substrate solutions are kept on ice until they are placed in Biomek FX. Enzyme (9 μl) is added to the plate then 1 μl of compound in dimethylsulphoxide is added, mixed and pre-incubated for 10 minutes. Substrate (10 μl) is then added, mixed and the reaction proceeds in the dark for 15 minutes at room temperature. The reaction is stopped with the addition of Stop solution (7 μl, NaAcetate pH 9). The fluorescence of the product is measured on a Victor II plate reader with an excitation wavelength of 340 nm and an emission wavelength of 615 nm. The assay is done in a Costar 384 well round bottom, low volume, non-binding surface (Corning #3676). […]

T1 sequence (P56817 22-460): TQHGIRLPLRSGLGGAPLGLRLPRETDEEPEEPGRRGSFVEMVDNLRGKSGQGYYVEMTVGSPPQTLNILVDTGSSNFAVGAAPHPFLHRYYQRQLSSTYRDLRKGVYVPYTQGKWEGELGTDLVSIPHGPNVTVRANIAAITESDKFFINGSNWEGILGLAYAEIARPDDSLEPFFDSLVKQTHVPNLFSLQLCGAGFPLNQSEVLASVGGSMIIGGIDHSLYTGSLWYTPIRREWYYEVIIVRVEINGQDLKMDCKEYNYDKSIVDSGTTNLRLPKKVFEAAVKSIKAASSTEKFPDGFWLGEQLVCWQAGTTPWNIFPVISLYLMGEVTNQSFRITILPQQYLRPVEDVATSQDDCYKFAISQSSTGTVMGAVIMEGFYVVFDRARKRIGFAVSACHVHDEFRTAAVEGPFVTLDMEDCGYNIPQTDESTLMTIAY

`CN1C(=O)CC(C)(CCc2cccc(-c3ccnc(Cl)c3)c2)N=C1N` (centres unmarked) [Example 20, 2-Amino-6-{2-[3-(2-chloropyridin-4-yl)phenyl]ethyl}-3,6-dimethyl-5,6-dihydropyrimidin-4(3H)-one hydrochloride]: the IC50 came out at 114 nM. This counts as sub-micromolar.
Consider `COc1cncc(-c2cccc(C3(C)CC(=O)N(C)C(N)=N3)c2)c1` (centres unmarked) [Example 21, 2-Amino-6-[3-(5-methoxypyridin-3-yl)phenyl]-3,6-dimethyl-5,6-dihydropyrimidin-4(3H)-one hydrochloride], for which the IC50 came to 316 nM.
